Test system: 699152-130-R-J1-PDC complex spheroid viability
Assay: Anticancer human tumor 699152-130-R-J1-PDC patient-derived pancreatic carcinoma cell line growth inhibition [POLQ]
Details: for IC50: curve of first compound; for viability, T/C: stronger effect = lower value; active = viability on the fitted dose curve at most 10% of control; inactive = the rest
Method in brief: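 Three-cell-type spheroids modelling solid tumor plus stroma served as the readout system; POL inhibitors were tested individually and in combination, concentration ranges set by clinical Cmax where known.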
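Also: spheroids exposed to agents for 7 days before viability reading.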
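For viability, T/C in this document: percent of DMSO vehicle control viability so 100% = vehicle and 0% = no viable signal.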

COc1cc(C2c3cc4c(cc3C(OC3OC5COC(C)OC5C(O)C3O)C3COC(=O)C23)OCO4)cc(OC)c1O (configuration not stated) + Nc1ccc(C#CCN(C(=O)Cc2ncc(C(F)(F)F)cc2C(F)(F)F)c2ccc(F)cc2)nn1
6.31 µM: IC50 (second compound 3.16 µM)
5.57 µM: IC50 (second compound 0.1 µM)
3.86 µM: IC50 (second compound 0.316 µM)
9.72 µM: IC50 (second compound 0.0316 µM)
8.26 µM: IC50 (second compound 10 µM)
4.26 µM: IC50 (second compound 1 µM)
inactive: viability, T/C (second compound 0.0316 µM, first compound 0.0316 µM) 85.2% | viability, T/C (second compound 0.0316 µM, first compound 0.1 µM) 84.2% | viability, T/C (second compound 0.0316 µM, first compound 0.316 µM) 79.5% | viability, T/C (second compound 0.0316 µM, first compound 1 µM) 76.3% | viability, T/C (second compound 0.0316 µM, first compound 3.16 µM) 53.9% | viability, T/C (second compound 0.0316 µM, first compound 10 µM) 50.1% | viability, T/C (second compound 0.1 µM, first compound 0.0316 µM) 105% | viability, T/C (second compound 0.1 µM, first compound 0.1 µM) 89% | viability, T/C (second compound 0.1 µM, first compound 0.316 µM) 77.9% | viability, T/C (second compound 0.1 µM, first compound 1 µM) 70.5% | viability, T/C (second compound 0.1 µM, first compound 3.16 µM) 52.5% | viability, T/C (second compound 0.1 µM, first compound 10 µM) 44.9% | viability, T/C (second compound 0.316 µM, first compound 0.0316 µM) 108% | viability, T/C (second compound 0.316 µM, first compound 0.1 µM) 90.6% | viability, T/C (second compound 0.316 µM, first compound 0.316 µM) 79.8% | viability, T/C (second compound 0.316 µM, first compound 1 µM) 69.1% | viability, T/C (second compound 0.316 µM, first compound 3.16 µM) 48.1% | viability, T/C (second compound 0.316 µM, first compound 10 µM) 41.2% | viability, T/C (second compound 1 µM, first compound 0.0316 µM) 92.2% | viability, T/C (second compound 1 µM, first compound 0.1 µM) 81.9% | viability, T/C (second compound 1 µM, first compound 0.316 µM) 78% | viability, T/C (second compound 1 µM, first compound 1 µM) 74.9% | viability, T/C (second compound 1 µM, first compound 3.16 µM) 49.6% | viability, T/C (second compound 1 µM, first compound 10 µM) 48.8% | viability, T/C (second compound 3.16 µM, first compound 0.0316 µM) 103% | viability, T/C (second compound 3.16 µM, first compound 0.1 µM) 85% | viability, T/C (second compound 3.16 µM, first compound 0.316 µM) 81% | viability, T/C (second compound 3.16 µM, first compound 1 µM) 69.2% | viability, T/C (second compound 3.16 µM, first compound 3.16 µM) 53.1% | viability, T/C (second compound 3.16 µM, first compound 10 µM) 46.8% | viability, T/C (second compound 10 µM, first compound 0.0316 µM) 115% | viability, T/C (second compound 10 µM, first compound 0.1 µM) 85.6% | viability, T/C (second compound 10 µM, first compound 0.316 µM) 89.4% | viability, T/C (second compound 10 µM, first compound 1 µM) 65.8% | viability, T/C (second compound 10 µM, first compound 3.16 µM) 53% | viability, T/C (second compound 10 µM, first compound 10 µM) 50.7%
